From PMC12228718, “A porin-like protein used by bacterial predators defines a wider lipid-trapping superfamily” (Nature Communications, 2025)

What was measured:
PopAhis = target: T1, PopAhis (Bdellovibrio bacteriovorus, UniProt Q6MQN4); experiment: liposome swelling assay (OD400); format: biochemical; details: relative to OmpF with L-arabinose = 100%; pH 7.0 proteoliposomes; passive permeation
T1 construct: gene Bd0427; mature PopA with internal His tag SSHHHHHHGSS inserted after A103 (loop 2); pelB leader at start; pET29b, E. coli BL21(DE3) RIPL; native folded, DDM-solubilised; homopentamer
T1 sequence (Q6MQN4 entry or part of it): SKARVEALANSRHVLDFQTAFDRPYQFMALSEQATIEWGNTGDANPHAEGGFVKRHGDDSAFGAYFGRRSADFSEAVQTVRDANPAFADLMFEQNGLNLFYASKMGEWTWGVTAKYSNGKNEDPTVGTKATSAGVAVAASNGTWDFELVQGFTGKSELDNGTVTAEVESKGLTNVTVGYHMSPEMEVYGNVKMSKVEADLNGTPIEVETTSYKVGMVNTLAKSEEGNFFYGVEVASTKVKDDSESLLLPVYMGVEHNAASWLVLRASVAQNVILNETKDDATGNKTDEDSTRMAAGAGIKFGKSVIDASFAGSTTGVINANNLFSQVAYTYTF

[1] = target: PopAΔSP (Bd0427, aa 21-353), refolded (B. bacteriovorus HD100); experiment: crystal structure; refolded PopAΔSP in β-OG detergent; C222(1) crystal form, 2.8 Å; five copies in the asymmetric unit
[2] = target: PopAhis (mature PopA with an internal His tag in loop 2), natively folded (B. bacteriovorus HD100); experiment: cryo-EM structure; native PopAhis, 0.02 mg/mL in 50 mM Tris pH 8, 150 mM NaCl, 0.03% w/v DDM; 2.85 Å in C1 symmetry, 2.66 Å in C5 symmetry
PopA (Bd0427; PopAΔSP) = target: T2, PopA (Bd0427; PopAΔSP) (Bdellovibrio bacteriovorus, UniProt Q6MQN4); experiment: X-ray crystallography (C222_[…] Å); format: binding; details: palmitate modelled in difference density behind loop 2 helix, carboxylate to R88; ligand not added, placed after AlphaFold3 suggestion
T2 construct: aa 21-353, signal peptide removed; selenomethionyl form A phased; homopentamer
T2 sequence (Q6MQN4 entry or part of it, stated change not applied): as the sequence (Q6MQN4 entry or part of it) above

NCC(=O)O [glycine]
relative swelling rate (PopAhis): only able to permit the passage of small substrates, notably glycine and alanine (Fig. 3e)

PopAΔSP (Bd0427, aa 21-353), refolded (natural protein)
stoichiometry N [1]: 5

PopAhis (mature PopA with an internal His tag in loop 2), natively folded (natural protein)
stoichiometry N [2]: 5

C[C@H](N)C(=O)O [alanine]
relative swelling rate (PopAhis): only able to permit the passage of small substrates, notably glycine and alanine (Fig. 3e)

CCCCCCCCCCCCCCCC(=O)O [palmitate]
X-ray crystallography (C222_1, 2.8 Å) (PopA (Bd0427; PopAΔSP)): Refinement verified that palmitate fits the density well (Fig. 2h)
